Data published in article PMC9316543, “Characterization, Expression Profiling, and Biochemical Analyses of the Cinnamoyl-CoA Reductase Gene Family for Lignin Synthesis in Alfalfa Plants” (International Journal of Molecular Sciences, 2022).
Read-outs that look alike come from different tables or passages of the source. Values belong to the molecule of their own block, whether it stands above or below them.

Tests used:
MsCCR-like1 = system: T1, MsCCR-like1; test: NADPH oxidation, decrease of A366; type: biochemical, Medicago sativa; conditions: NADPH 160 μM, 1x PBS, substrate 30-150 μM
T1 construct: His-tagged, pET-28a, E. coli BL21, Ni-NTA; tag removal not mentioned
Text: NADPH oxidation, decrease of A366 on MsCCR-like1

MsCCR1 = system: T2, MsCCR1; test: NADPH oxidation, decrease of A366; type: biochemical, Medicago sativa; conditions: NADPH 160 μM, 1x PBS, substrate 30-150 μM
T2 construct: gene CCR1; His-tagged, pET-28a, E. coli BL21, Ni-NTA; tag removal not mentioned
Text: NADPH oxidation, decrease of A366 on MsCCR1

[1] = read-out: p-Coumaroyl-CoA / K m

- Km (MsCCR-like1; read-out: Caffeoyl-CoA / K m): 48.2 ± 1.75 µM
SMILES: CC(C)(COP(=O)(O)OP(=O)(O)OC[C@H]1O[C@@H](n2cnc3c(N)ncnc32)[C@H](O)[C@@H]1OP(=O)(O)O)[C@@H](O)C(=O)NCCC(=O)NCCSC(=O)/C=C/c1ccc(O)c(O)c1 [Caffeoyl-CoA]

- Km (MsCCR1; read-out: Feruloyl-CoA / K m): 45.2 ± 11.4 µM
SMILES: COc1cc(/C=C/C(=O)SCCNC(=O)CCNC(=O)[C@H](O)C(C)(C)COP(=O)(O)OP(=O)(O)OC[C@H]2O[C@@H](n3cnc4c(N)ncnc43)[C@H](O)[C@@H]2OP(=O)(O)O)ccc1O [Feruloyl-CoA]

- Km (MsCCR1; read-out: Sinapoyl-CoA / K m): 10.6 ± 1.25 µM
SMILES: COc1cc(/C=C/C(=O)SCCNC(=O)CCNC(=O)[C@H](O)C(C)(C)COP(=O)(O)OP(=O)(O)OC[C@H]2O[C@@H](n3cnc4c(N)ncnc43)[C@H](O)[C@@H]2OP(=O)(O)O)cc(OC)c1O [Sinapoyl-CoA]

- Km (MsCCR1; [1]): 24.2 ± 4.51 µM
- Km (MsCCR-like1; [1]): 44.1 ± 7.12 µM
SMILES: CC(C)(COP(=O)(O)OP(=O)(O)OC[C@H]1O[C@@H](n2cnc3c(N)ncnc32)[C@H](O)[C@@H]1OP(=O)(O)O)[C@@H](O)C(=O)NCCC(=O)NCCSC(=O)/C=C/c1ccc(O)cc1 [p-Coumaroyl-CoA]
